Results from ChEMBL document CHEMBL5724914, “Linking interpersonal differences in gut microbiota composition and drug biotransformation activity” (2024).

Assays:
[1] = The drug is tested on Z-009 corresponding to pig gut metagenome with ENA study accession number: PRJEB37062 and ENA sample accession number: ERS12561809 for biotransformation under anaerobic condition. The drug concentrations were measured over 9 timepoints collected between 0 and 24 hours of incubation by liquid-chromatography-coupled mass spectrometry (LC–MS); settings: 2 µM
[2] = The drug is tested on Z-023 corresponding to metagenome with ENA study accession number: PRJEB37062 and ENA sample accession number: ERS12561822 for biotransformation under anaerobic condition. The drug concentrations were measured over 9 timepoints collected between 0 and 24 hours of incubation by liquid-chromatography-coupled mass spectrometry (LC–MS); settings: 2 µM
[3] = The drug is tested on Z-017 corresponding to mouse gut metagenome with ENA study accession number: PRJEB37062 and ENA sample accession number: ERS12561816 for biotransformation under anaerobic condition. The drug concentrations were measured over 9 timepoints collected between 0 and 24 hours of incubation by liquid-chromatography-coupled mass spectrometry (LC–MS); settings: 2 µM
[4] = The drug is tested on Z-010 corresponding to metagenome with ENA study accession number: PRJEB37062 and ENA sample accession number: ERS12561810 for biotransformation under anaerobic condition. The drug concentrations were measured over 9 timepoints collected between 0 and 24 hours of incubation by liquid-chromatography-coupled mass spectrometry (LC–MS); settings: 2 µM
[5] = The drug is tested on WLS-220 corresponding to human gut metagenome with ENA study accession number: PRJEB37062 and ENA sample accession number: ERS12561769 for biotransformation under anaerobic condition. The drug concentrations were measured over 9 timepoints collected between 0 and 24 hours of incubation by liquid-chromatography-coupled mass spectrometry (LC–MS); settings: 2 µM
[6] = The drug is tested on Z-013 corresponding to rabbit gut metagenome with ENA study accession number: PRJEB37062 and ENA sample accession number: ERS12561813 for biotransformation under anaerobic condition. The drug concentrations were measured over 9 timepoints collected between 0 and 24 hours of incubation by liquid-chromatography-coupled mass spectrometry (LC–MS); settings: 2 µM
[7] = human gut metagenome, 24 h, 2 µM
[8] = human gut metagenome, 24 h, 2 µM; remark: listed apart in the source
[9] = human gut metagenome, 24 h, 2 µM; remark: listed apart in the source
[10] = The drug is tested on Z-025 corresponding to rabbit gut metagenome with ENA study accession number: PRJEB37062 and ENA sample accession number: ERS12561824 for biotransformation under anaerobic condition. The drug concentrations were measured over 9 timepoints collected between 0 and 24 hours of incubation by liquid-chromatography-coupled mass spectrometry (LC–MS); settings: 2 µM
[11] = human gut metagenome, 24 h, 2 µM; remark: listed apart in the source
[12] = The drug is tested on WLS-090 corresponding to human gut metagenome with ENA study accession number: PRJEB37062 and ENA sample accession number: ERS12561753 for biotransformation under anaerobic condition. The drug concentrations were measured over 9 timepoints collected between 0 and 24 hours of incubation by liquid-chromatography-coupled mass spectrometry (LC–MS); settings: 2 µM
[13] = human gut metagenome, 24 h, 2 µM; remark: listed apart in the source
[14] = The drug is tested on WLS-240 corresponding to human gut metagenome with ENA study accession number: PRJEB37062 and ENA sample accession number: ERS12561773 for biotransformation under anaerobic condition. The drug concentrations were measured over 9 timepoints collected between 0 and 24 hours of incubation by liquid-chromatography-coupled mass spectrometry (LC–MS); settings: 2 µM
[15] = human gut metagenome, 24 h, 2 µM; remark: listed apart in the source
[16] = The drug is tested on Z-003 corresponding to pig gut metagenome with ENA study accession number: PRJEB37062 and ENA sample accession number: ERS12561803 for biotransformation under anaerobic condition. The drug concentrations were measured over 9 timepoints collected between 0 and 24 hours of incubation by liquid-chromatography-coupled mass spectrometry (LC–MS); settings: 2 µM
[17] = The drug is tested on Z-011 corresponding to mouse gut metagenome with ENA study accession number: PRJEB37062 and ENA sample accession number: ERS12561811 for biotransformation under anaerobic condition. The drug concentrations were measured over 9 timepoints collected between 0 and 24 hours of incubation by liquid-chromatography-coupled mass spectrometry (LC–MS); settings: 2 µM
[18] = The drug is tested on Z-030 corresponding to mouse gut metagenome with ENA study accession number: PRJEB37062 and ENA sample accession number: ERS12561829 for biotransformation under anaerobic condition. The drug concentrations were measured over 9 timepoints collected between 0 and 24 hours of incubation by liquid-chromatography-coupled mass spectrometry (LC–MS); settings: 2 µM
[19] = human gut metagenome, 24 h, 2 µM; remark: listed apart in the source
[20] = human gut metagenome, 24 h, 2 µM; remark: listed apart in the source
Further: call rule not given here.

| SMILES | Bacterial Biotransformation [1] | Bacterial Biotransformation [2] | Bacterial Biotransformation [3] | Bacterial Biotransformation [4] | Bacterial Biotransformation [5] | Bacterial Biotransformation [6] | Bacterial Biotransformation [7] | Bacterial Biotransformation [8] | Bacterial Biotransformation [9] | Bacterial Biotransformation [10] | Bacterial Biotransformation [11] | Bacterial Biotransformation [12] | Bacterial Biotransformation [13] | Bacterial Biotransformation [14] | Bacterial Biotransformation [15] | Bacterial Biotransformation [16] | Bacterial Biotransformation [17] | Bacterial Biotransformation [18] | Bacterial Biotransformation [19] | Bacterial Biotransformation [20] |
| --- | --- | --- | --- | --- | --- | --- | --- | --- | --- | --- | --- | --- | --- | --- | --- | --- | --- | --- | --- | --- |
| Br.CN1CCC[C@@H]1Cc1c[nH]c2ccc(CCS(=O)(=O)c3ccccc3)cc12 [ELETRIPTAN HYDROBROMIDE] | Compound NOT metabolized | Compound NOT metabolized | Compound NOT metabolized | Compound NOT metabolized | Compound metabolized | Compound NOT metabolized | Compound NOT metabolized | Compound NOT metabolized | Compound metabolized | Compound NOT metabolized | Compound NOT metabolized | Compound metabolized | Compound metabolized | Compound metabolized | Compound NOT metabolized | Compound NOT metabolized | Compound NOT metabolized | Compound NOT metabolized | Compound NOT metabolized | Compound metabolized |
| CCOc1ccc2nc(S(N)(=O)=O)sc2c1 [ETHOXZOLAMIDE] | Compound NOT metabolized | Compound NOT metabolized | Compound NOT metabolized | Compound NOT metabolized | Compound NOT metabolized | Compound NOT metabolized | Compound NOT metabolized | Compound NOT metabolized | Compound NOT metabolized | Compound NOT metabolized | Compound NOT metabolized | Compound metabolized | Compound metabolized | Compound NOT metabolized | Compound NOT metabolized | Compound NOT metabolized | Compound NOT metabolized | Compound NOT metabolized | Compound NOT metabolized | Compound NOT metabolized |
| CCc1cccc2c3c([nH]c12)C(CC)(CC(=O)O)OCC3 (stereo not given) [ETODOLAC] | Compound NOT metabolized | Compound NOT metabolized | Compound NOT metabolized | Compound NOT metabolized | Compound metabolized | Compound NOT metabolized | Compound metabolized | Compound metabolized | Compound metabolized | Compound NOT metabolized | Compound NOT metabolized | Compound metabolized | Compound metabolized | Compound metabolized | Compound NOT metabolized | Compound NOT metabolized | Compound NOT metabolized | Compound NOT metabolized | Compound metabolized | Compound metabolized |
| CC(=O)OCC(CCn1cnc2cnc(N)nc21)COC(C)=O [FAMCICLOVIR] | Compound metabolized | Compound metabolized | Compound metabolized | Compound metabolized | Compound metabolized | Compound NOT metabolized | Compound metabolized | Compound metabolized | Compound metabolized | Compound metabolized | Compound metabolized | Compound metabolized | Compound metabolized | Compound metabolized | Compound NOT metabolized | Compound metabolized | Compound metabolized | Compound NOT metabolized | Compound metabolized | Compound metabolized |
| CC(C)(C)NC(=O)[C@H]1CC[C@H]2[C@@H]3CC[C@H]4NC(=O)C=C[C@]4(C)[C@H]3CC[C@]12C [FINASTERIDE] | Compound metabolized | Compound metabolized | Compound NOT metabolized | Compound metabolized | Compound metabolized | Compound metabolized | Compound metabolized | Compound metabolized | Compound metabolized | Compound NOT metabolized | Compound metabolized | Compound metabolized | Compound metabolized | Compound metabolized | Compound NOT metabolized | Compound metabolized | Compound metabolized | Compound NOT metabolized | Compound metabolized | Compound metabolized |
